Each block holds one compound with its values, some of them ahead of it.
Experiments:
[1] = biological target: Apoptosis regulator Bcl-2 (Homo sapiens, UniProt P10415); test: Competitive binding affinity to Bcl-2 (unknown origin) preincubated for 30 mins followed by 5-FAM-Bid-BH3 peptide addition measured after 20 mins by fluorescence polarization assay
Bcl-2-like protein 1 = Bcl-2-like protein 1 (Homo sapiens, UniProt Q07817); test: Competitive binding affinity to Bcl-XL (unknown origin) preincubated for 30 mins followed by 5-FAM-Bid-BH3 peptide addition measured after 20 mins by fluorescence polarization assay
MDA-MB-231 = test: Cytotoxicity against human MDA-MB-231 cells assessed as inhibition of cell proliferation after 48 hrs by MTT assay; format: functional, cell-based; details: MDA-MB-231, 48 h
PC-3 = test: Cytotoxicity against human PC3 cells assessed as inhibition of cell proliferation after 48 hrs by MTT assay; format: functional, cell-based; details: PC-3, 48 h
[2] = biological target: Induced myeloid leukemia cell differentiation protein Mcl-1 (Homo sapiens, UniProt Q07820); test: Competitive binding affinity to Mcl-1 (unknown origin) preincubated for 30 mins followed by 5-FAM-Bid-BH3 peptide addition measured after 20 mins by fluorescence polarization assay
K562 = test: Cytotoxicity against human K562 cells assessed as inhibition of cell proliferation after 48 hrs by MTT assay; format: functional, cell-based; details: K562, 48 h

Sequence of Apoptosis regulator Bcl-2 (P10415 whole entry): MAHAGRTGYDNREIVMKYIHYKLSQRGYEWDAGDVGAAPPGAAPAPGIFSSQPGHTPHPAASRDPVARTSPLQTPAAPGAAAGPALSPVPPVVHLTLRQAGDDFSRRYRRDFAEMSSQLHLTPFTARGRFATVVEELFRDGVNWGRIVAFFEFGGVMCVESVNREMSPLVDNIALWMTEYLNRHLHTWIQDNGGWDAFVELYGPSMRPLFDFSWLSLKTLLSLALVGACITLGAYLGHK
Sequence of Bcl-2-like protein 1 (Q07817 whole entry): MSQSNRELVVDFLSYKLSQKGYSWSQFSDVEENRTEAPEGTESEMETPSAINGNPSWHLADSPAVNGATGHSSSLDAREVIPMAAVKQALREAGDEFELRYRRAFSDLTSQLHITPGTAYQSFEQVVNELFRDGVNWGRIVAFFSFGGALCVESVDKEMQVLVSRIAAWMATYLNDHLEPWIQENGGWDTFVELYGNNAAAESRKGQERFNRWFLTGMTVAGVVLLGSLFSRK
Sequence of Induced myeloid leukemia cell differentiation protein Mcl-1 (Q07820 whole entry): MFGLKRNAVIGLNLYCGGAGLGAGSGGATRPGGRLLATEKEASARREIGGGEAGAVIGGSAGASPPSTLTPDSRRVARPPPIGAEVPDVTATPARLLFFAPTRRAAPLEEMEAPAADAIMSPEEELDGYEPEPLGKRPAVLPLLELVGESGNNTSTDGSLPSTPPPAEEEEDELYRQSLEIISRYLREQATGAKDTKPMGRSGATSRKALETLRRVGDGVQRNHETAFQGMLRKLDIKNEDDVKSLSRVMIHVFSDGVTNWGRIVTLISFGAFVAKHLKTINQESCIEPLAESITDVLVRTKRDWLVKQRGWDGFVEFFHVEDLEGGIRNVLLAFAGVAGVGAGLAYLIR

Structure (SMILES): O=C(NS(=O)(=O)c1ccccc1)[C@H](Cc1ccccc1)N1C(=O)N[C@@H](Cc2ccc(Br)cc2)C1=O
Ki [1]: > 50 µM

Structure (SMILES): O=C(O)[C@H](Cc1ccccc1)NC(=O)[C@H](Cc1ccccc1)N1C(=O)N[C@@H](Cc2ccc(-c3ccc(Cl)cc3)cc2)C1=O
Ki [1]: > 50 µM

Structure (SMILES): O=C(Nc1ccc(O)cc1)[C@H](Cc1ccccc1)N1C(=O)N[C@@H](Cc2ccc(-c3ccc(Cl)cc3)cc2)C1=O
Ki [1]: > 50 µM

Structure (SMILES): COC(=O)[C@@H](NC(=O)[C@H](Cc1ccccc1)N1C(=O)N[C@@H](Cc2ccc(-c3ccc(Cl)cc3)cc2)C1=O)C(C)C
Ki [1]: > 50 µM

Structure (SMILES): O=C(NS(=O)(=O)c1ccccc1)[C@H](Cc1ccccc1)N1C(=O)N[C@@H](Cc2ccc(-c3ccnc(F)c3)cc2)C1=O
Ki [1]: > 50 µM

Structure (SMILES): O=C(NS(=O)(=O)c1ccc(Cl)c([N+](=O)[O-])c1)[C@H](Cc1ccccc1)N1C(=O)N[C@@H](Cc2ccccc2)C1=O
Ki [1]: > 50 µM

Structure (SMILES): Cc1ccc(S(=O)(=O)NC(=O)[C@H](Cc2ccccc2)N2C(=O)N[C@@H](Cc3ccc(-c4ccc(Cl)cc4)cc3)C2=O)cc1
Ki [1]: > 50 µM

Structure (SMILES): O=C(O)[C@H](Cc1ccccc1)N1C(=O)N[C@@H](Cc2ccccc2)C1=O
Ki [1]: > 50 µM

Structure (SMILES): O=C(NS(=O)(=O)c1ccc(Cl)c([N+](=O)[O-])c1)[C@H](Cc1ccccc1)N1C(=O)N[C@@H](Cc2ccc(Br)cc2)C1=O
Ki [1]: > 50 µM

Structure (SMILES): O=C(O)[C@H](Cc1ccccc1)N1C(=O)N[C@@H](Cc2ccc(Br)cc2)C1=O
Ki [1]: > 50 µM

Structure (SMILES): CC(=O)Oc1ccc(NC(=O)[C@H](Cc2ccccc2)N2C(=O)N[C@@H](Cc3ccc(-c4ccc(Cl)cc4)cc3)C2=O)cc1
Ki [1]: > 50 µM

Structure (SMILES): Cc1cccc(-c2ccc(C[C@@H]3NC(=O)N([C@@H](Cc4ccccc4)C(=O)NS(=O)(=O)c4ccccc4)C3=O)cc2)c1
Ki [1]: > 50 µM

Structure (SMILES): CC(C)[C@H](NC(=O)[C@H](Cc1ccccc1)N1C(=O)N[C@@H](Cc2ccc(-c3ccc(Cl)cc3)cc2)C1=O)C(=O)O
Ki [1]: > 50 µM

Structure (SMILES): Cc1ccc(S(=O)(=O)NC(=O)[C@H](Cc2ccccc2)N2C(=O)N[C@@H](Cc3ccc(-c4ccnc(F)c4)cc3)C2=O)cc1
Ki [1]: > 50 µM

Structure (SMILES): O=C(O)[C@H](Cc1ccccc1)N1C(=O)N[C@@H](Cc2ccc(-c3ccnc(F)c3)cc2)C1=O
Ki [1]: > 50 µM

More lines, main results first:

Ki [1]: > 50 µM
Structure (SMILES): O=C(NS(=O)(=O)c1ccccc1)[C@H](Cc1ccccc1)N1C(=O)N[C@@H](Cc2ccccc2)C1=O

Ki [1]: > 50 µM
Structure (SMILES): O=C(O)[C@H](Cc1ccccc1)N1C(=O)N[C@@H](Cc2ccc(-c3ccc(Cl)cc3)cc2)C1=O

Ki [1]: > 50 µM
Structure (SMILES): Cc1cccc(-c2ccc(C[C@@H]3NC(=O)N([C@@H](Cc4ccccc4)C(=O)O)C3=O)cc2)c1

Ki (Bcl-2-like protein 1): > 50 µM
Ki [2]: 9.3 µM
Ki [1]: 13 µM
Structure (SMILES): O=Cc1ccc(-c2ccc(C[C@@H]3NC(=O)N([C@@H](Cc4ccccc4)C(=O)NS(=O)(=O)c4ccc(Cl)c([N+](=O)[O-])c4)C3=O)cc2)cc1
IC50 (MDA-MB-231): 83.4 µM
IC50 (PC-3): 63.8 µM
IC50 (K562): 68.4 µM

Ki [1]: > 50 µM
Structure (SMILES): COC(=O)[C@H](Cc1ccccc1)NC(=O)[C@H](Cc1ccccc1)N1C(=O)N[C@@H](Cc2ccc(-c3ccc(Cl)cc3)cc2)C1=O

Ki [1]: 19 µM
Structure (SMILES): O=C(NS(=O)(=O)c1ccccc1)[C@H](Cc1ccccc1)N1C(=O)N[C@@H](Cc2ccc(-c3ccc(Cl)cc3)cc2)C1=O

Ki [1]: > 50 µM
Structure (SMILES): O=C(NS(=O)(=O)c1ccc(Cl)c([N+](=O)[O-])c1)[C@H](Cc1ccccc1)N1C(=O)N[C@@H](Cc2ccc(-c3ccnc(F)c3)cc2)C1=O

Ki (Bcl-2-like protein 1): > 50 µM
Ki [2]: > 50 µM
Ki [1]: 13 µM
Structure (SMILES): Cc1ccc(S(=O)(=O)NC(=O)[C@H](Cc2ccccc2)N2C(=O)N[C@@H](Cc3ccc(-c4cccc(C)c4)cc3)C2=O)cc1
IC50 (MDA-MB-231): 63.5 µM
IC50 (PC-3): 56 µM
IC50 (K562): 46.9 µM

Ki (Bcl-2-like protein 1): > 50 µM
Ki [2]: > 50 µM
Ki [1]: 15 µM
Structure (SMILES): O=C(NS(=O)(=O)c1cccc([N+](=O)[O-])c1)[C@H](Cc1ccccc1)N1C(=O)N[C@@H](Cc2ccc(-c3ccc(Cl)cc3)cc2)C1=O
IC50 (MDA-MB-231): 76.4 µM
IC50 (PC-3): 73.3 µM
IC50 (K562): 49 µM

Ki (Bcl-2-like protein 1): 4.7 µM
Ki [2]: 2.3 µM
Ki [1]: 4.4 µM
Structure (SMILES): Cc1cccc(-c2ccc(C[C@@H]3NC(=O)N([C@@H](Cc4ccccc4)C(=O)NS(=O)(=O)c4ccc(Cl)c([N+](=O)[O-])c4)C3=O)cc2)c1
IC50 (MDA-MB-231): 57.8 µM
IC50 (PC-3): 28.4 µM
IC50 (K562): 35.1 µM

Ki (Bcl-2-like protein 1): 6.1 µM
Ki [2]: 2.9 µM
Ki [1]: 3.7 µM
Structure (SMILES): O=C(NS(=O)(=O)c1ccc(Cl)c([N+](=O)[O-])c1)[C@H](Cc1ccccc1)N1C(=O)N[C@@H](Cc2ccc(-c3ccc(Cl)cc3)cc2)C1=O
IC50 (MDA-MB-231): 70.8 µM
IC50 (PC-3): 51.7 µM
IC50 (K562): 39.4 µM

Ki [1]: 0.62 µM
Structure (SMILES): Cc1ccc(S(=O)(=O)NC(=O)[C@H](Cc2ccccc2)N2C(=O)/C(=C/c3ccc(-c4ccccc4)cc3)SC2=S)cc1
IC50 (MDA-MB-231): 35.2 µM
IC50 (PC-3): 39.8 µM
IC50 (K562): 44.9 µM

Reference: ChEMBL document CHEMBL3627718, “Design, synthesis and preliminary bioactivity studies of imidazolidine-2,4-dione derivatives as Bcl-2 inhibitors” (Bioorg Med Chem, 2015)
